Legend:
Conditions in all cases: 72 h
U2OS [1] = assay: cell viability relative to DMSO; higher = less toxic
Calu-3 [2] = assay: as above
Caco-2 [3] = assay: as above
Vero E6 [4] = assay: as above
HepG2 [5] = assay: as above
U2OS [6] = assay: relative viability EC50 (midpoint between 100% and the lowest measured viability); higher = less toxic
Calu-3 [7] = assay: as above
Caco-2 [8] = assay: as above
Vero E6 [9] = assay: as above
HepG2 [10] = assay: as above
U2OS [11] = assay: drug sensitivity score (DSS) for viability; higher = more toxic; extreme values may be limits of the assay
Calu-3 [12] = assay: as above
Caco-2 [13] = assay: as above
Vero E6 [14] = assay: as above
HepG2 [15] = assay: as above

CC(C)(C#N)c1cc(Cn2cncn2)cc(C(C)(C)C#N)c1 [anastrozole]
cell viability [%]
Conditions | Caco-2 [3] | Calu-3 [2] | HepG2 [5] | U2OS [1] | Vero E6 [4]
1 nM | 89.4 | 97.1 | 89.5 | 92.7 | 94
10 nM | 101 | 98.7 | 94.3 | 98.3 | 99.2
100 nM | 92.9 | 93.8 | 96.1 | 96.3 | 97.7
1000 nM | 96.9 | 116 | 97.5 | 104 | 99.3
10000 nM | 95.8 | 103 | 96.4 | 113 | 107

Conditions | drug sensitivity score | relative viability EC50 [µM]
Caco-2 [8] | – | > 10
Caco-2 [13] | 0 | –
Calu-3 [7] | – | > 10
Calu-3 [12] | 0 | –
HepG2 [10] | – | > 10
HepG2 [15] | 0 | –
U2OS [6] | – | > 10
U2OS [11] | 0 | –
Vero E6 [9] | – | > 10
Vero E6 [14] | 0 | –
